Measurements as given in ChEMBL document CHEMBL1201862, “PubChem BioAssay data set” (2004).
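Where inhibition never reached the appropriate level, the endpoint shown equals the highest concentration tested. Otherwise, values were interpolated linearly from a five-concentration, 48-hour dose response in 96-well plates. At the GI50, growth is halved.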 Calls of active or inactive are those of the source. Rule as the data show it: active = GI50 up to about 1.1 µM and inactive = higher.

Key:
Assay in all cases: inhibition of tumour cell growth, NCI panel, 48 h
M14 = system: M14
HOP-62 = system: HOP-62
DU-145 = system: DU-145
NCI/ADR-RES = system: NCI/ADR-RES
Hs-578T = system: Hs-578T
LOX IMVI = system: LOX IMVI
HL-60 = system: HL-60
SW-620 = system: SW-620
MDA-MB-231 = system: MDA-MB-231
UACC-257 = system: UACC-257
OVCAR-5 = system: OVCAR-5
RXF 393 = system: RXF 393
IGROV-1 = system: IGROV-1
OVCAR-8 = system: OVCAR-8
HCT-116 = system: HCT-116
NCI-H522 = system: NCI-H522
OVCAR-3 = system: OVCAR-3
786-0 = system: 786-0
TK-10 = system: TK-10
COLO 205 = system: COLO 205
HOP-92 = system: HOP-92
SF-268 = system: SF-268
CAKI-1 = system: CAKI-1
HCC 2998 = system: HCC 2998
OVCAR-4 = system: OVCAR-4
SK-OV-3 = system: SK-OV-3
T47D = system: T47D
SNB-19 = system: SNB-19
NCI-H23 = system: NCI-H23
MOLT-4 = system: MOLT-4
EKVX = system: EKVX
SF-539 = system: SF-539
K562 = system: K562
A549 = system: A549
MDA-MB-435 = system: MDA-MB-435
HCT-15 = system: HCT-15
ACHN = system: ACHN
SK-MEL-28 = system: SK-MEL-28
SF-295 = system: SF-295
UO-31 = system: UO-31
UACC-62 = system: UACC-62
RPMI-8226 = system: RPMI-8226
MCF7 = system: MCF7
MDA-N = system: MDA-N
SNB-75 = system: SNB-75
NCI-H226 = system: NCI-H226
SN12C = system: SN12C
U-251 = system: U-251
HT-29 = system: HT-29
NCI-H460 = system: NCI-H460
SK-MEL-2 = system: SK-MEL-2
SK-MEL-5 = system: SK-MEL-5
PC-3 = system: PC-3
BT-549 = system: BT-549
KM12 = system: KM12
A498 = system: A498
SR = system: SR

SMILES: Nc1ncnc2c1nc(-c1ccccc1)n2C1OC(CO)C(O)C1O (configuration not stated)
- GI50 (M14): > 100 µM (inactive)
- GI50 (HOP-62): > 100 µM (inactive)
- GI50 (DU-145): > 100 µM (inactive)
- GI50 (NCI/ADR-RES): > 100 µM (inactive)
- GI50 (Hs-578T): > 100 µM (inactive)
- GI50 (LOX IMVI): > 100 µM (inactive)
- GI50 (HL-60): > 100 µM (inactive)
- GI50 (SW-620): > 100 µM (inactive)
- GI50 (MDA-MB-231): > 100 µM (inactive)
- GI50 (UACC-257): > 100 µM (inactive)
- GI50 (OVCAR-5): > 100 µM (inactive)
- GI50 (RXF 393): > 100 µM (inactive)
- GI50 (IGROV-1): > 100 µM (inactive)
- GI50 (OVCAR-8): > 100 µM (inactive)
- GI50 (HCT-116): > 100 µM (inactive)
- GI50 (NCI-H522): > 100 µM (inactive)
- GI50 (OVCAR-3): > 100 µM (inactive)
- GI50 (786-0): > 100 µM (inactive)
- GI50 (TK-10): > 100 µM (inactive)
- GI50 (COLO 205): > 100 µM (inactive)
- GI50 (HOP-92): > 100 µM (inactive)
- GI50 (SF-268): > 100 µM (inactive)
- GI50 (CAKI-1): > 100 µM (inactive)
- GI50 (HCC 2998): > 100 µM (inactive)
- GI50 (OVCAR-4): > 100 µM (inactive)
- GI50 (SK-OV-3): > 100 µM (inactive)
- GI50 (T47D): > 100 µM (inactive)
- GI50 (SNB-19): > 100 µM (inactive)
- GI50 (NCI-H23): > 100 µM (inactive)
- GI50 (MOLT-4): > 100 µM (inactive)
- GI50 (EKVX): > 100 µM (inactive)
- GI50 (SF-539): > 100 µM (inactive)
- GI50 (K562): > 100 µM (inactive)
- GI50 (A549): > 100 µM (inactive)
- GI50 (MDA-MB-435): > 100 µM (inactive)
- GI50 (HCT-15): > 100 µM
- GI50 (ACHN): > 100 µM (inactive)
- GI50 (SK-MEL-28): > 100 µM (inactive)
- GI50 (SF-295): > 100 µM (inactive)
- GI50 (UO-31): > 100 µM (inactive)
- GI50 (UACC-62): > 100 µM (inactive)
- GI50 (RPMI-8226): > 100 µM (inactive)
- GI50 (MCF7): > 100 µM (inactive)
- GI50 (MDA-N): > 100 µM (inactive)
- GI50 (SNB-75): > 100 µM (inactive)
- GI50 (NCI-H226): > 100 µM (inactive)
- GI50 (SN12C): > 100 µM (inactive)
- GI50 (U-251): > 100 µM (inactive)
- GI50 (HT-29): > 100 µM (inactive)
- GI50 (NCI-H460): > 100 µM (inactive)
- GI50 (SK-MEL-2): > 100 µM (inactive)
- GI50 (SK-MEL-5): > 100 µM (inactive)
- GI50 (PC-3): > 100 µM (inactive)
- GI50 (BT-549): > 100 µM (inactive)
- GI50 (KM12): 86.7 µM (inactive)
- GI50 (A498): > 100 µM (inactive)
- GI50 (SR): > 100 µM (inactive)
